Converted amounts (≈) assume the structure as drawn. The source made the active and inactive calls. The rule behind the calls is not given here.
Tests used:
Bacillus spizizenii [1] = experiment: Antibacterial activity against Bacillus subtilis ATCC 6633 after 24 hrs by micro broth dilution method; type: functional; conditions: ATCC 6633, 24 h
Aspergillus flavus [2] = experiment: Antifungal activity against Aspergillus flavus after 24 hrs by micro broth dilution method; type: functional
Micrococcus luteus [3] = experiment: Antibacterial activity against Micrococcus luteus ATCC 4698 after 24 hrs by micro broth dilution method; type: functional; conditions: ATCC 4698, 24 h
[4] = n-octanol/water partition coefficient, log P of the compound at 25 deg C after 24 hrs by saturation shake flask based UV spectroscopy; type: physicochemical
Shigella dysenteriae [5] = experiment: Antibacterial activity against Shigella dysenteriae ATCC 51252 after 24 hrs by micro broth dilution method; type: functional; conditions: ATCC 51252, 24 h
Candida [6] = experiment: Antifungal activity against Candida mycoderma after 24 hrs by micro broth dilution method; type: functional
Staphylococcus aureus [7] = experiment: Antibacterial activity against Staphylococcus aureus ATCC 25923 after 24 hrs by micro broth dilution method; type: functional; conditions: ATCC 25923, 24 h
Cyberlindnera jadinii [8] = experiment: Antifungal activity against Candida utilis ATCC 9950 after 24 hrs by micro broth dilution method; type: functional; conditions: Williopsis jadinii, ATCC 9950, 24 h
[9] = Ionization constant, pKa of the compound by UV spectroscopy; type: physicochemical
Escherichia coli [10] = experiment: Antibacterial activity against Escherichia coli DH52 after 24 hrs by micro broth dilution method; type: functional; conditions: DH52, 24 h
Staphylococcus aureus [11] = experiment: Antibacterial activity against methicillin-resistant Staphylococcus aureus N315 after 24 hrs by micro broth dilution method; type: functional; conditions: N315, 24 h
Candida albicans [12] = experiment: Antifungal activity against Candida albicans ATCC 90029 after 24 hrs by micro broth dilution method; type: functional; conditions: ATCC 90029, 24 h
Bacillus sp. [13] = experiment: Antibacterial activity against Bacillus proteus ATCC 13315 after 24 hrs by micro broth dilution method; type: functional; conditions: Bacillus sp. (in: firmicutes), ATCC 13315, 24 h
Pseudomonas aeruginosa [14] = experiment: Antibacterial activity against Pseudomonas aeruginosa ATCC 27853 after 24 hrs by micro broth dilution method; type: functional; conditions: ATCC 27853, 24 h
Calf thymus DNA [15] = experiment: Competitive binding affinity to calf thymus DNA by UV-visible spectroscopy in presence of neutral red; type: nucleic-acid assay; conditions: Bos taurus
Micrococcus luteus [16] = experiment: Antibacterial activity against Micrococcus luteus ATCC 4698 by micro dilution checkerboard method in the presence of chloromycin; type: functional
Bacillus sp. [17] = experiment: Antibacterial activity against Bacillus proteus ATCC 13315 by micro dilution checkerboard method in the presence of norfloxacin; type: functional
Micrococcus luteus [18] = experiment: Antibacterial activity against Micrococcus luteus ATCC 4698 by micro dilution checkerboard method in the presence of norfloxacin; type: functional
Candida [19] = experiment: Antifungal activity against Candida mycoderma by micro dilution checkerboard method in the presence of fluconazole; type: functional
Candida albicans [20] = experiment: Antifungal activity against Candida albicans ATCC 90029 by micro dilution checkerboard method in the presence of fluconazole; type: functional
Bacillus spizizenii [21] = experiment: Antibacterial activity against Bacillus subtilis ATCC 6633 by micro dilution checkerboard method in the presence of norfloxacin; type: functional
Shigella dysenteriae [22] = experiment: Antibacterial activity against Shigella dysenteriae ATCC 51252 by micro dilution checkerboard method in the presence of norfloxacin; type: functional
Staphylococcus aureus [23] = experiment: Antibacterial activity against methicillin-resistant Staphylococcus aureus N315 by micro dilution checkerboard method in the presence of norfloxacin; type: functional
Bacillus sp. [24] = experiment: Antibacterial activity against Bacillus proteus ATCC 13315 by micro dilution checkerboard method in the presence of chloromycin; type: functional
Pseudomonas aeruginosa [25] = experiment: Antibacterial activity against Pseudomonas aeruginosa ATCC 27853 by micro dilution checkerboard method in the presence of chloromycin; type: functional
Pseudomonas aeruginosa [26] = experiment: Antibacterial activity against Pseudomonas aeruginosa ATCC 27853 by micro dilution checkerboard method in the presence of norfloxacin; type: functional
Staphylococcus aureus [27] = experiment: Antibacterial activity against Staphylococcus aureus ATCC 25923 by micro dilution checkerboard method in the presence of chloromycin; type: functional
Staphylococcus aureus [28] = experiment: Antibacterial activity against Staphylococcus aureus ATCC 25923 by micro dilution checkerboard method in the presence of norfloxacin; type: functional
Calf thymus DNA [29] = experiment: Binding affinity to calf thymus DNA by UV-visible spectroscopy; type: nucleic-acid assay; conditions: Bos taurus
Staphylococcus aureus [30] = experiment: Antibacterial activity against methicillin-resistant Staphylococcus aureus N315 by micro dilution checkerboard method in the presence of chloromycin; type: functional
Escherichia coli [31] = experiment: Antibacterial activity against Escherichia coli DH52 by micro dilution checkerboard method in the presence of norfloxacin; type: functional
Bacillus spizizenii [32] = experiment: Antibacterial activity against Bacillus subtilis ATCC 6633 by micro dilution checkerboard method in the presence of chloromycin; type: functional
Cyberlindnera jadinii [33] = experiment: Antifungal activity against Candida utilis ATCC 9950 by micro dilution checkerboard method in the presence of fluconazole; type: functional
Shigella dysenteriae [34] = experiment: Antibacterial activity against Shigella dysenteriae ATCC 51252 by micro dilution checkerboard method in the presence of chloromycin; type: functional
Aspergillus flavus [35] = experiment: Antifungal activity against Aspergillus flavus by micro dilution checkerboard method in the presence of fluconazole; type: functional
Escherichia coli [36] = experiment: Antibacterial activity against Escherichia coli DH52 by micro dilution checkerboard method in the presence of chloromycin; type: functional
[37] = Bacillus sp. (in: firmicutes), ATCC 13315
[38] = Pseudomonas aeruginosa, ATCC 27853
[39] = Staphylococcus aureus, ATCC 25923

## Fc1cccc(CN(Cc2nnn[nH]2)c2ccccc2)c1
Bacillus spizizenii [1]
  MIC: 32 µg/mL (≈ 113 µM)
Aspergillus flavus [2]
  MIC: 32 µg/mL (≈ 113 µM)
Micrococcus luteus [3]
  MIC: 64 µg/mL (≈ 226 µM)
[4]
  logP at 24 h: 1.29
Shigella dysenteriae [5]
  MIC: 32 µg/mL (≈ 113 µM)
Candida [6]
  MIC: 32 µg/mL (≈ 113 µM)
Staphylococcus aureus [7]
  MIC: 64 µg/mL (≈ 226 µM)
Cyberlindnera jadinii [8]
  MIC: 16 µg/mL (≈ 56.5 µM)
[9]
  pKa: 4.19
Escherichia coli [10]
  MIC: 32 µg/mL (≈ 113 µM)
Staphylococcus aureus [11]
  MIC: 64 µg/mL (≈ 226 µM)
Candida albicans [12]
  MIC: 32 µg/mL (≈ 113 µM)
Bacillus sp. [13]
  MIC: 64 µg/mL (≈ 226 µM)
Pseudomonas aeruginosa [14]
  MIC: 64 µg/mL (≈ 226 µM)

## Clc1ccc(CN(Cc2nnn[nH]2)c2ccccc2)c(Cl)c1
Bacillus spizizenii [1]
  MIC: 32 µg/mL (≈ 95.7 µM)
Aspergillus flavus [2]
  MIC: 16 µg/mL (≈ 47.9 µM)
Micrococcus luteus [3]
  MIC: 64 µg/mL (≈ 191 µM)
[4]
  logP at 24 h: 1.67
Shigella dysenteriae [5]
  MIC: 64 µg/mL (≈ 191 µM)
Candida [6]
  MIC: 8 µg/mL (≈ 23.9 µM)
Staphylococcus aureus [7]
  MIC: 32 µg/mL (≈ 95.7 µM)
Cyberlindnera jadinii [8]
  MIC: 8 µg/mL (≈ 23.9 µM)
[9]
  pKa: 4.54
Escherichia coli [10]
  MIC: 16 µg/mL (≈ 47.9 µM)
Staphylococcus aureus [11]
  MIC: 64 µg/mL (≈ 191 µM)
Candida albicans [12]
  MIC: 16 µg/mL (≈ 47.9 µM)
Bacillus sp. [13]
  MIC: 32 µg/mL (≈ 95.7 µM)
Pseudomonas aeruginosa [14]
  MIC: 32 µg/mL (≈ 95.7 µM)

## Clc1ccccc1CN(Cc1nnn[nH]1)c1ccccc1
Calf thymus DNA [15]
  Activity: Active
Micrococcus luteus [16]
  fractional inhibitory concentration index (FICI): 0.5
Micrococcus luteus [16]; Micrococcus luteus, ATCC 4698
  MIC: 8 µg/mL
Bacillus sp. [17]
  fractional inhibitory concentration index (FICI): 0.5
Bacillus sp. [17]; [37]
  MIC: 16 µg/mL
Micrococcus luteus [18]
  fractional inhibitory concentration index (FICI): 0.75
Micrococcus luteus [18]; Micrococcus luteus, ATCC 4698
  MIC: 8 µg/mL
Candida [19]
  fractional inhibitory concentration index (FICI): 0.5
Candida [19]; Candida
  MIC: 2 µg/mL
Candida albicans [20]
  fractional inhibitory concentration index (FICI): 0.75
Candida albicans [20]; Candida albicans, ATCC 90029
  MIC: 2 µg/mL
Bacillus spizizenii [1]
  MIC: 16 µg/mL (≈ 53.4 µM)
Bacillus spizizenii [21]
  fractional inhibitory concentration index (FICI): 0.625
Bacillus spizizenii [21]; Bacillus spizizenii, ATCC 6633
  MIC: 8 µg/mL
Aspergillus flavus [2]
  MIC: 8 µg/mL (≈ 26.7 µM)
Shigella dysenteriae [22]
  MIC: 4 µg/mL
Staphylococcus aureus [23]
  fractional inhibitory concentration index (FICI): 0.75
Staphylococcus aureus [23]; Staphylococcus aureus, N315
  MIC: 8 µg/mL
Bacillus sp. [24]
  fractional inhibitory concentration index (FICI): 0.75
Bacillus sp. [24]; [37]
  MIC: 32 µg/mL
Pseudomonas aeruginosa [25]
  fractional inhibitory concentration index (FICI): 0.5
Pseudomonas aeruginosa [25]; [38]
  MIC: 16 µg/mL
Pseudomonas aeruginosa [26]
  fractional inhibitory concentration index (FICI): 0.75
Pseudomonas aeruginosa [26]; [38]
  MIC: 16 µg/mL
Staphylococcus aureus [27]
  fractional inhibitory concentration index (FICI): 0.75
Staphylococcus aureus [27]; [39]
  MIC: 16 µg/mL
Staphylococcus aureus [28]
  fractional inhibitory concentration index (FICI): 0.5
Staphylococcus aureus [28]; [39]
  MIC: 16 µg/mL
Micrococcus luteus [3]
  MIC: 32 µg/mL (≈ 107 µM)
[4]
  logP at 24 h: 1.09
Calf thymus DNA [29]
  Activity: Dose-dependent effect
  K: 4.16 ×10⁴ L/mol
Shigella dysenteriae [5]
  MIC: 32 µg/mL (≈ 107 µM)
Staphylococcus aureus [30]
  fractional inhibitory concentration index (FICI): 0.5
Staphylococcus aureus [30]; Staphylococcus aureus, N315
  MIC: 8 µg/mL
Candida [6]
  MIC: 4 µg/mL (≈ 13.3 µM)
Escherichia coli [31]
  fractional inhibitory concentration index (FICI): 0.625
Escherichia coli [31]; Escherichia coli, DH52
  MIC: 8 µg/mL
Staphylococcus aureus [7]
  MIC: 32 µg/mL (≈ 107 µM)
Bacillus spizizenii [32]
  fractional inhibitory concentration index (FICI): 0.375
Bacillus spizizenii [32]; Bacillus spizizenii, ATCC 6633
  MIC: 16 µg/mL
Cyberlindnera jadinii [8]
  MIC: 4 µg/mL (≈ 13.3 µM)
[9]
  pKa: 4.34
Cyberlindnera jadinii [33]
  fractional inhibitory concentration index (FICI): 0.5
Cyberlindnera jadinii [33]; Williopsis jadinii, ATCC 9950
  MIC: 4 µg/mL
Escherichia coli [10]
  MIC: 16 µg/mL (≈ 53.4 µM)
Staphylococcus aureus [11]
  MIC: 32 µg/mL (≈ 107 µM)
Shigella dysenteriae [34]
  fractional inhibitory concentration index (FICI): 0.5
Shigella dysenteriae [34]; Shigella dysenteriae, ATCC 51252
  MIC: 8 µg/mL
Aspergillus flavus [35]
  fractional inhibitory concentration index (FICI): 0.5
Aspergillus flavus [35]; Aspergillus flavus
  MIC: 4 µg/mL
Candida albicans [12]
  MIC: 8 µg/mL (≈ 26.7 µM)
Bacillus sp. [13]
  MIC: 16 µg/mL (≈ 53.4 µM)
Pseudomonas aeruginosa [14]
  MIC: 16 µg/mL (≈ 53.4 µM)
Escherichia coli [36]
  fractional inhibitory concentration index (FICI): 0.75
Escherichia coli [36]; Escherichia coli, DH52
  MIC: 16 µg/mL

## COc1ccc(N(Cc2nnn[nH]2)Cc2ccc(Cl)cc2Cl)cc1
Bacillus spizizenii [1]
  MIC: 32 µg/mL (≈ 87.9 µM)
Aspergillus flavus [2]
  MIC: 16 µg/mL (≈ 43.9 µM)
Micrococcus luteus [3]
  MIC: 32 µg/mL (≈ 87.9 µM)
[4]
  logP at 24 h: 1.58
Shigella dysenteriae [5]
  MIC: 32 µg/mL (≈ 87.9 µM)
Candida [6]
  MIC: 8 µg/mL (≈ 22 µM)
Staphylococcus aureus [7]
  MIC: 32 µg/mL (≈ 87.9 µM)
Cyberlindnera jadinii [8]
  MIC: 8 µg/mL (≈ 22 µM)
[9]
  pKa: 4.29
Escherichia coli [10]
  MIC: 32 µg/mL (≈ 87.9 µM)
Staphylococcus aureus [11]
  MIC: 64 µg/mL (≈ 176 µM)
Candida albicans [12]
  MIC: 16 µg/mL (≈ 43.9 µM)
Bacillus sp. [13]
  MIC: 32 µg/mL (≈ 87.9 µM)
Pseudomonas aeruginosa [14]
  MIC: 32 µg/mL (≈ 87.9 µM)
